Reference: PubChem BioAssay AID504758 (National Center for Advancing Translational Sciences (NCATS), 2011)

Tested on: Caco-2 monolayer permeability, A-to-B, LC-MS/MS
Experiment: Inhibitors of Cruzain: Caco-2 Permeability Profiling Assay
Conditions: hits give high values
From the text: Chagas Disease is a neglected tropical disease that affects over 16 million people in Latin America. The cysteine protease cruzain is essential for the survival Trypanosoma cruzi, the parasitic agent responsible for Chagas disease. Potential intervention for T. cruzi includes the inhibition of cruzain. This bioassay will summarize the ongoing development of small molecule cruzain inhbitiors. Currently, a screen of ~200k compounds and through extensive follow-up work a probe was identified. To further characterize the probe, it was tested in in vitro ADME assays. This permeability assay predicts the in vivo absorption of the lead across the intestinal lining by using a Caco-2 cell line and measuring the lead's rate of transport into the cytosol. […] NIH Chemical Genomics Center [NCGC] NIH Molecular Libraries Probe Production Centers Network [MLPCN] MLSCN Grant: DA024891-01 PI Name: Dr. Brian Shoichet; University of California, San Francisco
1. Buffer Preparation: Prepare 1M HEPES: add 23.83g HEPES to 100ml of 0.85% NaCl Prepare HBSS+ buffer: add 12.8ml of 1M HEPES in 0.85% NaCl to 500ml HBSS buffer. 2. Take out the compounds from -80 degrees C, ultrasonicate or pre-warm for a few minutes to thaw the compounds. 3. […] The T0, LY and T90, LY plates are read by FlexStation 3 at excitation of 485 nm and emission of 535 nm to determine LY permeability. […]

- apparent permeability Papp: 4.1 10^-6 cm/s
SMILES: Cc1ccc(OCCn2c(CCNC(=O)C3CCCCC3)nc3ccccc32)cc1
